Measurements from patent publication US9283222B2 (priority 2006, dated 2016).

target: Recombinant Human Poly(ADP-Ribose) Polymerase (PARP), PARP-1 (Homo sapiens (Human), UniProt P09874); details: read-out: PARP-1 (Ki); Table 1; text calls the values EC50s
Sequence (P09874 whole entry): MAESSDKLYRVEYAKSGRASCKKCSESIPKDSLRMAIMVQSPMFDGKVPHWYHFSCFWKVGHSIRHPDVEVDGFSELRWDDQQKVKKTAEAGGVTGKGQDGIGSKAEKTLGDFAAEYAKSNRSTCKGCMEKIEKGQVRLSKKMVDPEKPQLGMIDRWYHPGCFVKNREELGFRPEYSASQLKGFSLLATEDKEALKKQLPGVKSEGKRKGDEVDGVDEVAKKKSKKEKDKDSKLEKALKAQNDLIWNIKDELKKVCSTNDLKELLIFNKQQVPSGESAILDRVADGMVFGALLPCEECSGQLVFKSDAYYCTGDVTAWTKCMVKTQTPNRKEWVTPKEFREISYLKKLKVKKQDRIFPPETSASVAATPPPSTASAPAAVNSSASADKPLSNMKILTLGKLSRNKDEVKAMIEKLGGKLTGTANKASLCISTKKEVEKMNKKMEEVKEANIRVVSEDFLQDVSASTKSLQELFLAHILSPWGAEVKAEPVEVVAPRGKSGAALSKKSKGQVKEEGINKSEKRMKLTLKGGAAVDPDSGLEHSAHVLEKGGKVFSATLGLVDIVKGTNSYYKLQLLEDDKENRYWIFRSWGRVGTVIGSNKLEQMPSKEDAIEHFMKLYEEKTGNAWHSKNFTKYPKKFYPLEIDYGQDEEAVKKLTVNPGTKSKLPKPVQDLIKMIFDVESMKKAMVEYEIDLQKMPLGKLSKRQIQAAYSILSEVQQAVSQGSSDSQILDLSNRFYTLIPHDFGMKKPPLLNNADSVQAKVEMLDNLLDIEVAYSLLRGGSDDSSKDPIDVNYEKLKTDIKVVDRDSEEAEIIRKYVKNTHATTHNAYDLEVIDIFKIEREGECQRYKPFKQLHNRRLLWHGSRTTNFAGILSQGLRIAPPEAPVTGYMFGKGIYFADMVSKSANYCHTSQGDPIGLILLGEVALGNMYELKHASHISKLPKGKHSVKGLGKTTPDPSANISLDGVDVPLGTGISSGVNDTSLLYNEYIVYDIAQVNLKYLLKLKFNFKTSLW

**Q.** COc1ccccc1CCNC(=O)c1cccc(Cc2n[nH]c(=O)c3c2CCCC3)c1 [Example 382, N-(2-(2-methoxyphenyl)ethyl)-3-((4-oxo-3,4,5,6,7,8-hexahydrophthalazin-1-yl)methyl)benzamide] was tested. Which Ki did it give?
**A.** The Ki was 79 nM.

**Q.** COc1cccc(CCNC(=O)c2cccc(Cc3n[nH]c(=O)c4c3CCCC4)c2)c1 [Example 383, N-(2-(3-methoxyphenyl)ethyl)-3-((4-oxo-3,4,5,6,7,8-hexahydrophthalazin-1-yl)methyl)benzamide] was tested. Which Ki did it give?
**A.** The Ki was 44 nM.

**Q.** How did the Ki turn out when COc1ccc(CCNC(=O)c2cccc(Cc3n[nH]c(=O)c4c3CCCC4)c2)cc1 [Example 384, N-(2-(4-methoxyphenyl)ethyl)-3-((4-oxo-3,4,5,6,7,8-hexahydrophthalazin-1-yl)methyl)benzamide] was run?
**A.** The Ki was 40 nM.

**Q.** How did the Ki turn out when O=C(NCCc1ccccc1F)c1cccc(Cc2n[nH]c(=O)c3c2CCCC3)c1 [Example 385, N-(2-(2-fluorophenyl)ethyl)-3-((4-oxo-3,4,5,6,7,8-hexahydrophthalazin-1-yl)methyl)benzamide] was run?
**A.** Its Ki is 42 nM.

**Q.** For O=C(NCCc1cccc(F)c1)c1cccc(Cc2n[nH]c(=O)c3c2CCCC3)c1 [Example 386, N-(2-(3-fluorophenyl)ethyl)-3-((4-oxo-3,4,5,6,7,8-hexahydrophthalazin-1-yl)methyl)benzamide], which Ki is on record?
**A.** Its Ki is 33 nM.

**Q.** For O=C(NCCc1ccc(F)cc1)c1cccc(Cc2n[nH]c(=O)c3c2CCCC3)c1 [Example 387, N-(2-(4-fluorophenyl)ethyl)-3-((4-oxo-3,4,5,6,7,8-hexahydrophthalazin-1-yl)methyl)benzamide], which Ki is on record?
**A.** Its Ki is 44 nM.

**Q.** O=C(NCCc1ccccc1Cl)c1cccc(Cc2n[nH]c(=O)c3c2CCCC3)c1 [Example 388, N-(2-(2-chlorophenyl)ethyl)-3-((4-oxo-3,4,5,6,7,8-hexahydrophthalazin-1-yl)methyl)benzamide] was tested. Which Ki did it give?
**A.** Its Ki is 88 nM.

**Q.** With O=C(NCCc1cccc(Cl)c1)c1cccc(Cc2n[nH]c(=O)c3c2CCCC3)c1 [Example 389, N-(2-(3-chlorophenyl)ethyl)-3-((4-oxo-3,4,5,6,7,8-hexahydrophthalazin-1-yl)methyl)benzamide] as the molecule, how does the Ki read?
**A.** The Ki was 48 nM.

**Q.** With O=C(NCCc1ccc(Cl)cc1)c1cccc(Cc2n[nH]c(=O)c3c2CCCC3)c1 [Example 390, N-(2-(4-chlorophenyl)ethyl)-3-((4-oxo-3,4,5,6,7,8-hexahydrophthalazin-1-yl)methyl)benzamide] as the molecule, how does the Ki read?
**A.** Its Ki is 31 nM.

**Q.** With O=C(NCCc1ccc(-c2ccccc2)cc1)c1cccc(Cc2n[nH]c(=O)c3c2CCCC3)c1 [Example 393, N-(2-(1,1′-biphenyl-4-yl)ethyl)-3-((4-oxo-3,4,5,6,7,8-hexahydrophthalazin-1-yl)methyl)benzamide] as the molecule, how does the Ki read?
**A.** The Ki was 70 nM.

**Q.** How did the Ki turn out when O=C(NCCc1cccc(C(F)(F)F)c1)c1cccc(Cc2n[nH]c(=O)c3c2CCCC3)c1 [Example 394, 3-((4-oxo-3,4,5,6,7,8-hexahydrophthalazin-1-yl)methyl)-N-(2-(3-(trifluoromethyl)phenyl)ethyl)benzamide] was run?
**A.** The Ki was 22 nM.

**Q.** O=C(NCCc1ccc(C(F)(F)F)cc1)c1cccc(Cc2n[nH]c(=O)c3c2CCCC3)c1 [Example 395, 3-((4-oxo-3,4,5,6,7,8-hexahydrophthalazin-1-yl)methyl)-N-(2-(4-(trifluoromethyl)phenyl)ethyl)benzamide] was tested. Which Ki did it give?
**A.** The Ki was 38 nM.

**Q.** Which Ki does the source give for O=C(NCCc1ccc(Oc2ccccc2)cc1)c1cccc(Cc2n[nH]c(=O)c3c2CCCC3)c1 [Example 396, 3-((4-oxo-3,4,5,6,7,8-hexahydrophthalazin-1-yl)methyl)-N-(2-(4-phenoxyphenyl)ethyl)benzamide] here?
**A.** Its Ki is 83 nM.

**Q.** With Cc1ccc(CCNC(=O)c2cccc(Cc3n[nH]c(=O)c4c3CCCC4)c2)cc1C [Example 397] as the molecule, how does the Ki read?
**A.** Its Ki is 50 nM.

**Q.** For Cc1ccc(CCNC(=O)c2cccc(Cc3n[nH]c(=O)c4c3CCCC4)c2)c(C)c1 [Example 398, N-(2-(2,4-dimethylphenyl)ethyl)-3-((4-oxo-3,4,5,6,7,8-hexahydrophthalazin-1-yl)methyl)benzamide], which Ki is on record?
**A.** Its Ki is 82 nM.
